{"source": "patent US20040019060A1", "about": "“Sigma receptor ligands and their medical uses” (priority 2000, published 2004)", "key": {"[1]": {"tested_on": "Human mammary carcinoma (MDA MB 468) cells", "test": "MTS cell viability/proliferation assay, mammary carcinoma cells", "type": "cell-based", "procedure": "Human mammary carcinoma (MDA MB 468) cells were obtained from TCC, Manassas, Va., USA; catalogue number HTB-132; cells were grown in accordance with the manufacturer's instructions.\nCell density was checked microscopically at time zero."}, "[2]": {"tested_on": "MDA MB 435 human breast carcinoma xenografts", "test": "MDA MB 435 breast carcinoma xenograft growth and angiogenesis", "type": "in vivo, NCr athymic mice", "settings": "for Tumour growth (increase in volume relative to start of treatment): FIG. 8a", "procedure": "MDA MB 435 human breast carcinoma cells (as a model of hormone-insensitive disease) were grown in tissue culture to 70% confluence, harvested with trypsin:EDTA, washed, resuspended in DMEM and injected bilaterally into the inguinal fat pads of 6 week old female NCr athymic mice (orthotopic site) at 1.5×10^6 cells in 50 μl. The mice were housed in filter boxes in […] laminar flow cabinets and fed sterilized food and water. All procedures were carried out in class 1 laminar flow hoods using sterile equipment and reagents. On day 7, the tumours were measured with vernier calipers across two perpendicular diameters, and the mice were randomised into experimental groups and treated as follows: 1. […] 2. […] 3. Rimcazole 15 mg/kg/day (as above). […] The preparations were made up freshly each day, and the animals dosed intraperitoneally for 24 days. Animals were observed daily and weighed regularly to check that there were no adverse effects of treatment. […] Differences in growth were compared using the Mann-Whitney U test. At termination of the experiment the mice were killed and tumours excised and weighed. Blood, liver and tumour samples were snap frozen for analysis of drug levels by LCMS/MS. Tumour samples were also cryopreserved, and sections cut and stained with MECA-32 (Developmental Studies Hybridoma Unit; rat anti mouse endothelium) visualised with HRP conjugated goat-anti rat (Star 72, Serotec) to estimate blood vessel density."}, "[3]": {"tested_on": "Human endothelial cells co-cultured with human \"feeder\" fibroblasts", "test": "In vitro angiogenesis assay (pseudocapillary formation, anti-CD31 staining)", "type": "cell-based", "procedure": "Human endothelial cells co-cultured with human “feeder” fibroblasts on a fibrin matrix in 24 well plates were incubated with ligands at different concentrations. The ligands were added on days 0, 4, 7 and 9 and the experiment terminated on day 11. On each plate, 2 wells served as untreated controls, and 2 received suramin at […] as a standard angiogenesis inhibitor. Each concentration of ligand was assayed in triplicate. On day 11, the wells were washed, and the endothelial cells fixed and stained with anti-CD31 (PECAM-1) antibody and visualised with alkaline phosphatase conjugated second antibody. The cultures were scanned for image analysis and quantitation using a DataCell image analysis system and ImagePro software. Angiogenesis was expressed as the area and/or perimeter of “pseudocapillaries” formed in the gel by the endothelial cells."}}, "note": "Structures can show the parent of a compound that is named as a salt.", "data": [{"smiles": "C[C@@H]1CN(CCCn2c3ccccc3c3ccccc32)C[C@H](C)N1", "note": "[Rimcazole, cis-9-[3,5-dimethyl-1-piperazinyl) propyl]carbazole dihydrochloride]", "values": [{"measurement": "Effect of sublethal concentration (MTS)", "setting": "[1]; 5 micromolar, FIG. 10 bottom panel", "result": "cytostasis"}, {"measurement": "Cell killing (MTS viability)", "setting": "[1]; 10 micromolar, low passage cells, FIG. 9", "result": "no surviving cells remained after 24 hours"}, {"measurement": "Weights of excised tumours", "setting": "[2]; 15 mg/kg dose, FIG. 8b", "result": "did not achieve statistical significance"}, {"measurement": "Tumour growth (increase in volume relative to start of treatment)", "setting": "[2]; 15 mg/kg/day i.p. for 24 days, p=0.0228 Mann-Whitney U test", "result": "significant tumour growth retardation"}, {"measurement": "Tumour growth (increase in volume relative to start of treatment)", "setting": "[2]; 30 mg/kg/day i.p. for 24 days, p=0.0436 Mann-Whitney U test", "result": "significant tumour growth retardation"}, {"measurement": "Weights of excised tumours", "setting": "[2]; 30 mg/kg/day, p=0.0239, FIG. 8b", "result": "significantly less"}, {"measurement": "Health and body weight gain of mice during therapy", "setting": "[2]; 15 and 30 mg/kg/day for 24 days, data not shown", "result": "remained healthy throughout therapy and gained weight at the same rate as controls"}, {"measurement": "Vascular density in excised tumours", "setting": "[2]; both doses (15 and 30 mg/kg/day), FIG. 8c", "result": "significantly inhibited"}, {"measurement": "Inhibition of in vitro angiogenesis", "setting": "[3]; 4 μM, FIG. 5c", "result": "complete inhibition of angiogenesis"}, {"measurement": "Inhibition of pseudocapillary formation (in vitro angiogenesis)", "setting": "[3]; FIG. 4, 5a, 5b angiogenesis area", "result": "very effective in inhibiting"}]}]}
